# Assay results reported in EP2077851B1, “A PHARMACEUTICAL COMPOSITION COMPRISING CORDYCEPIN FOR THE TREATMENT AND PREVENTION OF OBESITY” (priority 2006, dated 2008).
# Like-named read-outs stand apart in the source and are kept apart here.
# Tests used:
# [1] = cited from earlier work
# 3T3-L1 cells [2] = experiment: Triacylglycerol synthesis in 3T3-L1 cells (intracellular triacylglycerol per unit weight of protein); format: cell-based
# Experimental: A measurement was made to find the effect of cordycepin on the synthesis of triacylglycerol (TAG). First, the cells in each group were detached using a Tris-EDTA buffer and disrupted with an ultrasonicator. A calibration curve for a standard solution was made according to the protocol of a BCA protein assay kit. The cell lysates were diluted in the kit reagent and warmed at 37°C for 30 min. Then, within 10 min, the solutions were measured for absorbance at 562 nm to quantify protein. Separately, according to the protocol of a BCS triacylglycerol kit, the cell lysates were diluted in the kit reagent and warmed at 37°C for 10 min. Then, within 60 min, the absorbance of the solutions was measured at 550 nm against a reagent blank. The amount of intracellular triacylglycerol per unit weight of protein (µg/mg) was calculated according to a calculation formula.
# For the preliminary investigation of the mode of action of cordycepin on differentiation and TAG synthesis, adenosine, one of several cordycepin homologues, was added to the submerged medium for differentiation at the time of initiating differentiation at the same molar concentration as cordycepin (32 µM).
# C/EBPα = experiment: Western blot analysis of protein expression in 3T3-L1 cells; format: cell-based; details: FIG. 8
# Experimental: (§1) Western blot analysis was performed in order to examine the effect of cordycepin on the expression of C/EBPα, PPARγ, and anti-leptin, the essential factors involved in adipogenesis and lipogenesis.
# (§2) 3T3-L1 cells cultured in 6-well dishes were rinsed three times with ice-cold PBS, scraped into 0.5 ml of PBS, and centrifuged at 14,000 rpm for 1 min. Cell pellets were resuspended in 0.2 ml ice-cold RIPA buffer (50 mM Tris-HCl, pH 7.4, 150 mM NaCl, 1 mM EDTA, 1% NP 40, 0.25 % deoxycholate) and protease inhibitors (Complete Mini Protease Inhibitor Tablets, Roche, Indianapolis, IN). Suspensions were sheared through a 20-gauge needle, incubated on ice for 30 min and centrifuged at 14,000 rpm at 4°C for 20 min. Supernatants were collected and the protein concentration was determined using a BCA assay kit. Cell lysates were mixed with an equal volume of Laemmli SDS loading buffer (Bio-Rad Laboratories, Hercules, CA), equal amounts of lysate protein ([…]) were loaded onto SDS-PAGE, and electrophoresis was carried out before the protein was transferred to a nitrocellulose membrane (Bio-Rad Laboratories, Hercules, CA). The membranes were blocked for 1 h in PBS containing 0.05% Tween-20 (USB corp., Cleveland, USA) and 5% nonfat dry milk. The membranes were incubated with antibodies against C/EBPα, PPARγ (Santa Cruz, CA) and anti-leptin (Sigma) for 1 hour, followed by three 10 min washes in PBS/Tween-20. The blots were subsequently treated with appropriate secondary antibodies conjugated to horseradish peroxidase for 1 hour at room temperature, and washed with PBS-T three times for 10 min. To visualize reaction complexes, an enhanced chemiluminescence system (ECL, Amersham International plc, Little Chalfont Buckinghamshire, England) was used, and reaction complexes were exposed to X-ray film.
# PPARγ = experiment: as above; format: cell-based; details: FIG. 8
# Experimental: as §1, §2
# anti-leptin = experiment: as above; format: cell-based; details: 32 µM, differentiated 3T3-L1 cells, FIG. 8
# Experimental: as §1, §2
# 3T3-L1 cells [3] = experiment: Differentiation of 3T3-L1 fibroblast cells into adipocytes (oil red O staining); format: cell-based
# Experimental: Fibroblast cells (3T3-L1 cells) were cultured in 10 cm-culture dishes containing animal cell culture media (refer to Table 2, below) at 37°C in a 5% CO2 incubator, with the media replaced with fresh media every two or three days.
# 3T3-L1 cell line was purchased from the American Type Culture Collection (ATCC CL-173). The cells were grown and differentiated according to the protocol of Frost and Lane (Frost and Lane, 1985): 3T3-L1 preadipocytes were cultured in 100 mm plates containing a submerged medium for proliferation (DMEM supplemented with 10% BCS, 100 U/ml penicillin, and 100 µg/ml streptomycin) in an atmosphere of 5% CO2 at 37°C. When the cell become confluent, the cells were harvested, splitted in a 6-well plate to a cell number of 4.0×10^5 cells/ml and subsequently cultured until reaching confluence again. Two days after confluence, the cells were stimulated to differentiate into adipocytes by incubating for 2 days in the medium for stimulating differentiation (MSD, DMEM containing 1 µM DEX, 0.5 mM IBMX, and 10 µg/ml insulin), and maintained in the differentiated state in the medium for differentiation (MFD containing 10% BCS and 5 µg/ml insulin) for 7 days. MSD was freshly replaced every 48 hours and the comparison of the each medium composition used in this example was shown in Table 2.
# Cordycepin was dissolved in the appropriate warm medium and added at the final concentration of 4, 16, and 32 µM.
# Cells obtained in Example 1-1 were washed twice with PBS (pH 7.4), fixed with 10% formalin in PBS for 1 hour at room temperature and washed three times with distilled water. The cells were stained with filtered 0.5% oil red O for 10 min, and washed again with distilled water three times. The pictures of the stained cells were taken using an Olympus (CKX-41, Tokyo, Japan) microscope. The density of stained oil red O was measured using a spectrometer (DU-70, Beckman, Fullerton, CA) at 518 nm after the dye was extracted with propanol. […]
# [4] = anti-obesity drugs, background knowledge
# [5] = adenosine 32 µM, differentiated 3T3-L1 cells
compound,measurement,setting,value
NC1=NCC(c2ccccc2)O1 (centres unmarked) [Aminorex],Side effect,[1]; [4],Pulmonary hypertension caused
CC(N)Cc1ccccc1 (centres unmarked) [Amphetamine],Side effect,[1]; in vivo,Addictive
CCNC(C)Cc1cccc(C(F)(F)F)c1 (centres unmarked) [Fenfluramine],Valvular dysfunction caused in persons administered in combination with other therapy,"[1]; share of persons, sale prohibited in 1997","Valvular dysfunction caused in 35% of persons administered in combination with other therapy, sale prohibited in 1997."
CCCCCCCCCCC[C@@H](C[C@@H]1OC(=O)[C@H]1CCCCCC)OC(=O)[C@H](CC(C)C)NC=O [Orlistat],Side effect,[1]; [4],"Diarrhea, fatty stool, fecal incontinence."
CC(C)CC(N(C)C)C1(c2ccc(Cl)cc2)CCC1 (centres unmarked) [Sibutramine],Side effect,[1]; [4],"Blood pressure increase, insomnia, xerostomia and vertigo. Prohibited to the patients with cardiovascular disease."
Nc1ncnc2c1ncn2[C@@H]1O[C@H](CO)[C@@H](O)[C@H]1O [adenosine],inhibitory effect of cordycepin on TAG synthesis of 3T3-L1 cells,"3T3-L1 cells [2]; adenosine 32 µM added together with cordycepin 32 µM at initiation of differentiation, FIG. 7",suppressed
same,C/EBPα level,C/EBPα; [5],inhibited
same,expression levels of PPARγ,PPARγ; [5],no significant effect
same,expression levels of anti-leptin,anti-leptin,no significant effect
same,inhibitory effect of cordycepin on differentiation of 3T3-L1 cells,"3T3-L1 cells [3]; adenosine 32 µM added together with cordycepin 32 µM at initiation of differentiation, FIG. 6",suppressed
"Nc1ncnc2c1ncn2[C@@H]1O[C@H](CO)C[C@H]1O [cordycepin, 3'-deoxyadenosine]",synthesis of triacylglycerol in 3T3-L1 cells,"3T3-L1 cells [2]; cordycepin 4, 16 and 32 µM, FIG. 5",inhibits the synthesis of triacylglycerol in 3T3-L1 cells in a dose-dependent manner
same,expression levels of C/EBPα,"C/EBPα; 32 µM, 3T3-L1 cells",inhibited
same,expression levels of PPARγ,"PPARγ; 32 µM, 3T3-L1 cells",inhibited
same,expression levels of anti-leptin,anti-leptin,inhibited
same,differentiation of 3T3-L1 cells into adipose cells,"3T3-L1 cells [3]; cordycepin 4, 16 and 32 µM, oil red O, 518 nm, FIG. 4",inhibits the differentiation of 3T3-L1 cells into adipose cells in a dose-dependent manner
same,differentiation of 3T3-L1 cells into adipocytes,"3T3-L1 cells [3]; in the presence of 32 µM of cordycepin, FIG. 4",almost completely suppressed
Thyroid hormone,Side effect,[1]; [4],Hyperthyroidism caused
